Results: patent US20220105170A1 (priority 2019, published 2022)
Several values for one entry are separate records, joined by “and”; a condition that tells them apart may be missing. Equal values may be shown once.

System: peripheral blood lymphocytes collected from swine exposed to ASFV
Format: cell-based

## 1556 (QVVFHAGSLY) [compound 1556]
  Number of Spots: 13

## 1187 (FSEHTKFFSY) [compound 1187]
  Number of Spots: 15 and 16

## 1783 (GMQDGIRWFY) [compound 1783]
  Number of Spots: 13

## 847 (YINFRLKTFY) [compound 847]
  Number of Spots: 21

## 278 (MRIEIFWEL) [compound 278]
  Number of Spots: 15

## 534 (RYFTFKFAAHL) [compound 534]
  Number of Spots: 12

## 2159 (RIHTRFGQYY) [compound 2159]
  Number of Spots: 15

## 860 (KARLCGLSY) [compound 860]
  Number of Spots: 14 and 19

## 56 (MRYTQIYKYPL) [compound 56]
  Number of Spots: 23

## 2127 (AIQKNYFRF) [compound 2127]
  Number of Spots: 15

## 1020 (QTNCQLYFF) [compound 1020]
  Number of Spots: 18

## 1265 (INRNYYPYY) [compound 1265]
  Number of Spots: 12

## 954 (NNFTATCII) [compound 954]
  Number of Spots: 15

## 1986 (KINQRSFSF) [compound 1986]
  Number of Spots: 13

## 835 (AMFFTRSEW) [compound 835]
  Number of Spots: 26

## 2139 (NYFRFFKKLL) [compound 2139]
  Number of Spots: 19

## 1836 (GKTMPVEFYY) [compound 1836]
  Number of Spots: 17

## 1491 (MIADAINQEF) [compound 1491]
  Number of Spots: 13

## 1841 (SMFKHFDNM) [compound 1841]
  Number of Spots: 17

## 1651 (RFSRPGNNY) [compound 1651]
  Number of Spots: 17

## 1024 (SQKLVQLFY) [compound 1024]
  Number of Spots: 20

## 880 (SSIVFQHEM) [compound 880]
  Number of Spots: 66

## 857 (AVNSTGLIGY) [compound 857]
  Number of Spots: 17

## 1544 (GSLYPTQFDY) [compound 1544]
  Number of Spots: 14

## 280 (SLSTLLLKY) [compound 280]
  Number of Spots: 12

## 1571 (KTVQHIEQY) [compound 1571]
  Number of Spots: 14

## 1141 (ILAEYVYSY) [compound 1141]
  Number of Spots: 18

## 1049 (SLEFNTFYAF) [compound 1049]
  Number of Spots: 15

## 1394 (SSFKCWTCHLY) [compound 1394]
  Number of Spots: 14

## 2252 (AIQYFYQRYR) [compound 2252]
  Number of Spots: 13

## 1461 (YTLLSPLQSY) [compound 1461]
  Number of Spots: 13 and 17

## 2194 (RSCDYAPGFY) [compound 2194]
  Number of Spots: 12

## 1630 (AMLEFKKFF) [compound 1630]
  Number of Spots: 12

## 1528 (KTYTLLTKPY) [compound 1528]
  Number of Spots: 13

## 1150 (KSQDTLHRF) [compound 1150]
  Number of Spots: 12

## 64 (KVNNSMPLI) [compound 64]
  Number of Spots: 32

## 784 (KSKQASISSI) [compound 784]
  Number of Spots: 12

## 1413 (ISSMSVSTFW) [compound 1413]
  Number of Spots: 12

## 1823 (YTKFFNCPF) [compound 1823]
  Number of Spots: 25

## 1065 (KTRGTRLFF) [compound 1065]
  Number of Spots: 36

## 1619 (IDFDPLVTFY) [compound 1619]
  Number of Spots: 16

## 1472 (KVDLPYHLM) [compound 1472]
  Number of Spots: 16

## 1151 (NLSEVVTAY) [compound 1151]
  Number of Spots: 16

## 328 (KNHLYWRV) [compound 328]
  Number of Spots: 13

## 839 (ASSSMHSGM) [compound 839]
  Number of Spots: 16

## 1127 (RALKMYEDYY) [compound 1127]
  Number of Spots: 12

## 1633 (ITRQTFMDI) [compound 1633]
  Number of Spots: 14

## 1824 (SMMDFERVHY) [compound 1824]
  Number of Spots: 14

## 888 (TMMHYPTFNW) [compound 888]
  Number of Spots: 12

## 2075 (KSCYPLVFI) [compound 2075]
  Number of Spots: 12

## 625 (SVFMWICIY) [compound 625]
  Number of Spots: 15

## 1080 (FRDHFIAL) [compound 1080]
  Number of Spots: 16

## 523 (MGFSKPFMR) [compound 523]
  Number of Spots: 12

## 1864 (SMPMSMIGPY) [compound 1864]
  Number of Spots: 13

## 321 (KRHKNHLY) [compound 321]
  Number of Spots: 14

## 1693 (EVYAPYMHY) [compound 1693]
  Number of Spots: 12

## 69 (KVNKSMPLI) [compound 69]
  Number of Spots: 255

## 1567 (QAQEEWNMIL) [compound 1567]
  Number of Spots: 13

## 1375 (RAREFYISW) [compound 1375]
  Number of Spots: 15

## 607 (NINCFNYCI) [compound 607]
  Number of Spots: 12

## 2251 (AIQYFYQRY) [compound 2251]
  Number of Spots: 12

## 2183 (PHIFYRPLYR) [compound 2183]
  Number of Spots: 15

## 2266 (YRHFKDWRL) [compound 2266]
  Number of Spots: 14

## 557 (LIEFLTGFF) [compound 557]
  Number of Spots: 16

## 1750 (SMSYFDGKTEY) [compound 1750]
  Number of Spots: 17

## 1484 (GTSYLRMAY) [compound 1484]
  Number of Spots: 14

## 335 (YLHETLFEL) [compound 335]
  Number of Spots: 12

## 1006 (KRKKHVEEI) [compound 1006]
  Number of Spots: 13

## 2142 (RFFKKLLTH) [compound 2142]
  Number of Spots: 12

## 449 (HTIYQSYSL) [compound 449]
  Number of Spots: 19

## 921 (SVLLRDSGYY) [compound 921]
  Number of Spots: 14

## 869 (GLAALVSPY) [compound 869]
  Number of Spots: 13

## 2125 (TAIQKNYFR) [compound 2125]
  Number of Spots: 14

## 2197 (KVRNKAIELY) [compound 2197]
  Number of Spots: 17

## 1019 (TQPLNPFPL) [compound 1019]
  Number of Spots: 21

## 2092 (KAKIAFPPEY) [compound 2092]
  Number of Spots: 17

## 1499 (AVNLLRQTF) [compound 1499]
  Number of Spots: 14

## 1296 (HGQLQTFPR) [compound 1296]
  Number of Spots: 16

## 608 (INCFNYCILY) [compound 608]
  Number of Spots: 13

## 565 (SKVMDMICLDY) [compound 565]
  Number of Spots: 17

## 653 (WAVFTGNMEL) [compound 653]
  Number of Spots: 16

## 439 (ISPEKFIKI) [compound 439]
  Number of Spots: 16

## 1090 (ALFPQYISYY) [compound 1090]
  Number of Spots: 106

## 2225 (SFSEMLTRYW) [compound 2225]
  Number of Spots: 12

## 1982 (NAFEWIHFV) [compound 1982]
  Number of Spots: 14

## 1347 (LMSALKWPI) [compound 1347]
  Number of Spots: 17

## 1288 (HFNAHFKPY) [compound 1288]
  Number of Spots: 16

## 2126 (TAIQKNYFRF) [compound 2126]
  Number of Spots: 13

## 1204 (MQDYSLTF) [compound 1204]
  Number of Spots: 17

## 458 (IVSEYINYLF) [compound 458]
  Number of Spots: 16

## 1001 (FKLYYIPLSI) [compound 1001]
  Number of Spots: 21

## 1767 (LLDTNTNFY) [compound 1767]
  Number of Spots: 13 and 21

## 279 (KTDLLNNEF) [compound 279]
  Number of Spots: 17

## 478 (STYTEIVKY) [compound 478]
  Number of Spots: 33 and 19
